Measured values reported in US6627441B1, “Increasing levels of growth regulator and/or water stress during embryo development” (priority 1998, dated 2003).

Tests used:
Assay type in all cases: cell-based
[1] = tested on: white spruce somatic embryos; assay: PEG replacement during development, maturation frequency (Example 6); conditions: treatment 2: PEG constant, lactose added from the third week; versus PEG control; FIG. 2
Method: (§1) This experiment was carried out to observe the effect of replacing the non-permeating water stress with a permeating water stress during development. Thus, immature somatic embryos from suspension culture were precultured in 1/20 strength hormone medium for one week then transferred to maturation medium containing 3% sucrose, 20 μM ABA and adjusted to 290 mmol/kg with PEG. They were transferred to fresh medium weekly in which the osmoticum and ABA was increased. For the control (treatment 1) the PEG concentration was increased (as outlined in Example 4, treatment 6). In treatment 2, the PEG remained constant and water potential was increased by adding lactose (treatment 2). In treatment 3, PEG was increased after the first week, then lactose was added at the third and fourth weeks, and in the fifth week PEG was removed and replaced completely with lactose. Treatment 4 was the same as treatment 3, except that sucrose was used in place of lactose. Treatment 5 was similar to treatment 3, except that PEG was replaced with lactose earlier so that PEG was replaced totally by lactose by the fourth week. Total development time was six weeks.
Each treatment comprised nine replicates. The number of embryos per treatment were scored and means prepared. […] The trend was that as PEG was replaced by permeating osmotica, the maturation frequency declined slightly. […]

[2] = tested on: somatic seedlings of white spruce; assay: Germination and shoot development after replacing PEG with alternative osmotica (Example 8); conditions: for shoot development frequency of somatic seedlings: after 4-5 weeks growth
Method: as §1
White spruce somatic embryos were produced using all treatments described in Example 6 (replacement of PEG with sucrose or lactose). […] Embryos were desiccated for two weeks, then rehydrated and visually selected for subsequent transfer to fresh medium. The embryos from all treatments germinated to produce root and epicotyl elongation (i e., 100% germination). Subsequent growth differed amongst the treatments. After four to five weeks growth, 87% of somatic seedlings from treatment 1 had visible new shoot growth (new needles). All other treatments had much lower shoot emergence frequencies.

[3] = tested on: Douglas fir somatic embryos; assay: Douglas fir somatic embryogenesis (Example 11); conditions: replacing PEG at week 5 or week 6; compared with PEG being maintained
Method: Douglas fir may be cultured using sucrose at 1-3% (30-90 mM), however, other sugars may be used at the same concentrations. Maintenance cultures usually contain the sugar at about 1%. […] Douglas fir embryogenic tissue was induced from developing seed. Embryos contained in megametophytes were induced and maintained on TX maintenance medium having 1% sucrose. This medium contained 0.2 g/L glutamine and 0.2 g/L casein hydrolysate. Selected embryogenic tissue was subcultured biweekly per petri dish. Medium was solidified with 2.4 g/L PHYTAGEL™. This medium contained 9 μM 2,4-D and 4.5 μM BA. Liquid suspension cultures were maintained in flasks containing 50 mL liquid maintenance medium Liquid cultures were subcultured weekly. For maturation, the embryogenic suspension was first precultured in liquid medium without growth regulators, and subcultured weekly. The water potential of the maintenance cultures and precultures remained below 150 mmol/kg. After one or two weeks of preculture, 1 to 2 g of filtered tissue was resuspended in 10 mL fresh medium and 0.75 mL of the new suspension was pipetted onto the solid maturation medium. Maturation medium contained calcium chloride at 105 mg/L, and ammonium nitrate was included at 400 mg/L. Glutamine was used at 0.8 g/L for the first week then reduced to 0.1 g/L thereafter. Casein hydrolysate was maintained at 0.2 g/L. The sugar was increased to 2-3% and the medium was solidified with Phytagel at 2.8 to 3.4 g/L. ABA was added into the medium after filter sterilization. The maturation medium also contained PEG. The ABA and water potential were raised following the schedule in the following table.
In some instances, the PEG was reduced and the water potential made up to the desired level using lactose at 0% in the first week, 1% in week 2, 4% in weeks 3 and 4, 5% in week 5, and 6% in week 6. Although this allowed a firmer gel to set than otherwise would occur with PEG alone, it may not provide any other benefit over full PEG (see, for example, Table 8), particularly if liquid culture medium is used. […] The embryos were desiccated and stored in a freezer as described for spruce, or germinated directly without desiccation. For germination, embryos were placed on half-strength basal medium containing 0.4 g/L calcium nitrate, 0.2 g/L ammonium nitrate, no hormones and 2% sucrose and 0.6% agar. These were grown in the light.

[4] = tested on: white spruce somatic embryos; assay: Effect of water stress and ABA on somatic embryo moisture contents (Example 4); conditions: treatment 2: mannitol 290, 400, 540 mmol/kg with ABA 20, 30, 40 μM; six weeks
Method: Water potentials were measured for liquid media containing various osmotica at a range of concentrations, which were plotted on a curve. Determinations were made using a vapour pressure osmometer (Wescor). Moisture content determinations were done using methods described previously by Attree et al. (U.S. Pat. No. 5,464,769).
Embryos were cultured on medium containing 3% sucrose and ABA, with additional osmoticum adjusted to vary water potentials, as shown in Table 4.
Embryos were cultured for six weeks and moisture contents determined. Determinations for each treatment were made weekly, with three replicates per treatment. 50 embryos per replicate were used. In some instances, particularly for the control with low osmoticum, insufficient embryos were produced. In these cases, the minimum number of embryos used per replicate was thirty. For weeks 0 to 2, the embryos were too small to be used for moisture content determinations, so whole tissue was used instead.

SMILES | maturation frequency [1] | shoot development frequency of somatic seedlings ([2]; Treatment 2: 6.6% lactose, partial PEG replacement) | shoot development frequency of somatic seedlings ([2]; Treatment 3: 10% lactose, mid replacement) | shoot development frequency of somatic seedlings ([2]; Treatment 5: 10% lactose early replacement) | appearance of embryos before desiccation ([2]; treatment 5 of Example 6 (PEG replaced early with lactose)) | embryo development result [3] | greening of embryos [4] | shoot development frequency of somatic seedlings ([2]; Treatment 4: 13% sucrose mid replacement) | appearance of embryos before desiccation ([2]; treatment 4 of Example 6 (PEG replaced with sucrose))
OC[C@H]1O[C@@H](O[C@H]2[C@H](O)[C@@H](O)C(O)O[C@@H]2CO)[C@H](O)[C@@H](O)[C@H]1O (stereo partly shown) [lactose] | slight decline | 1.5% | 76.5% | 49.2% | very slight splitting of the root cap region | very good results |  |  | 
OC[C@@H](O)[C@@H](O)[C@H](O)[C@H](O)CO [mannitol] |  |  |  |  |  |  | greening was prevented |  | 
OC[C@H]1O[C@@](CO)(O[C@H]2O[C@H](CO)[C@@H](O)[C@H](O)[C@H]2O)[C@@H](O)[C@@H]1O [sucrose] |  |  |  |  |  | very good results |  | 1.6% | very slight splitting of the root cap region
